Legend:
[1] = system: diet-induced obesity (DIO) mice; assay: TZD-associated side effects in DIO mice (PCV, heart weight, cardiac and bone genes); format: in vivo, mouse
Experimental: C57BL/6J male mice were obtained from Jackson laboratory (Bar Harbor, ME) and maintained on a 12 h light (6:00 AM to 6:00 PM)—12 h dark (6:00 PM to 6:00 AM) cycle at an ambient temperature of 22±1° C. All animals had access to diet and water ad libitum. All procedures involving animals were approved by the Institutional Animal Care and Use Committee of the University of Oklahoma Health Science Center. All experiments were performed with age-matched male mice. The mice were fed a high-fat diet (HFD) (60% kcal fat, Bio-Serv, NJ, USA) starting from the age of 6 weeks until study end. […] Food intake was determined manually by measuring the amount of input food subtracting the amount of the food remaining in the food hopper and the crumbs on the bedding of the cage each day for three days during the 4th week of the treatment. Packed cell volume (PCV) was measured with blood drawn from tail on a LW Scientific E8 centrifuge (LW Scientific, Lawrenceville, Georgia, USA) microhematocrit centrifuge at the end of study. For all other measurements, the blood was drawn at the time of euthanization.
(§1) Total RNA (2 μg) was isolated from tissues or cells using TRIzol reagents (Life Technologies) and reverse transcribed using oligo d(T) primers (New England Biosystems) and SuperScript IV reverse transcription kit (Applied Biosystems). qPCR was performed in a CFX96 Touch Real-Time PCR detection system using SYBR Green mix (Applied Biosystems). The amplification program was as follows: initial denaturation at 95° C. for 15 min, followed by 40 cycles of 95° C. for 15 s, 60° C. for 1 min, and 40° C. for 30 s. Relative mRNA expression was determined by the ΔΔCt method normalized to TBP mRNA.

[2] = target: T1, human PPARγ2 (Homo sapiens, UniProt P37231); assay: PPARγ transactivation reporter assay (3×PPRE-luc) in HEK-293 cells; format: cell-based; conditions: HEK293, PPARγ2 + 3×PPRE-luc, relative to Rosi
T1 construct: host or cells: HEK-293
T1 sequence (P37231 1-505): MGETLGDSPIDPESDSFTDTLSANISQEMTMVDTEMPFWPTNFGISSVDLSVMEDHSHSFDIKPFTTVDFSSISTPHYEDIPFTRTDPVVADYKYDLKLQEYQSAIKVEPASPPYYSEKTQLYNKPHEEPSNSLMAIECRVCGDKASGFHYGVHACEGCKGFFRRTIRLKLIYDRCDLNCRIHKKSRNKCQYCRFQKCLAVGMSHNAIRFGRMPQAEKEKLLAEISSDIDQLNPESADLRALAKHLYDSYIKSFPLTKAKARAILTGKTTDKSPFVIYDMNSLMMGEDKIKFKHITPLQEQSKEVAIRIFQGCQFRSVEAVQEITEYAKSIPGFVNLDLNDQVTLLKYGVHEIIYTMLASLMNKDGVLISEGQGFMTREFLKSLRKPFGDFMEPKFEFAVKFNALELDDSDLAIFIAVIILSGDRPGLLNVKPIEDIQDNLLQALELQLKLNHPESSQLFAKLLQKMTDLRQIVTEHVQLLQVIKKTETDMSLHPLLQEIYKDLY
Experimental: HEK-293 cells were seeded overnight, co-transfected with plasmids expressing human PPARγ2 and 3×PPRE-luc (both from Addgene) followed by incubation for 16 h, and then re-seeded in a 384-well plate and incubated for 24 h. Compounds were added and then incubated another 24 h. Luciferase activity was analyzed in each well using Bright-Glo Luciferase kit (Promega).

[3] = target: T2, PPARγ (Homo sapiens, UniProt P37231); conditions: cited from earlier work
T2 sequence (P37231 1-505): T1 sequence (P37231 1-505)

[4] = system: PPARγ S273 phosphorylation; assay: PPARγ S273 phosphorylation and phosphorylation-dependent genes in 3T3-L1 differentiated adipocytes; format: cell-based, mouse; conditions: 3T3-L1 differentiated adipocytes, TNFα 10 ng/ml 1 h, compounds at 10 μM, Western blot
Experimental: as §1

CN(CCOc1ccc(CC2SC(=O)NC2=O)cc1)c1ccccn1 (stereo not shown) [Rosi, rosiglitazone, reference compound]
mRNA levels of bone formation genes (Bglap, SPP1, ColA1) ([1]; 4-week treatment): decreased their expression significantly
heart weight ([1]; relative to vehicle): significant increase
mRNA levels of Myh7 and Nppb in heart ([1]; vs vehicle): increased

Cc1c(C)n(Cc2ccc(-c3ccccc3C(=O)O)cc2)c2ccc(C(=O)NCc3cccnc3)cc12 [UHC1, 4′ -((2,3-Dimethyl-5-(pyridine-3-ylmethylcarboamyl)-1H-indol-1-yl)methyl)biphenyl-2-carboxylic acid, reference compound]
3×PPRE-luc reporter activity as % of potency of Rosi [2]: approximately 45%
PPARγ binding affinity (literature) [3]: poor
PPARγ phosphorylation at S273 (literature) [3]: inhibit
S273 phosphorylation of PPARγ [4]: significantly inhibited
